Several values for one entry are separate records, joined by “and”; a condition that tells them apart may be missing. Identical values can stand only once.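 Protocol summary: plate cells (96-well), add compound at 5 concentrations, incubate 48 h, interpolate endpoints linearly. Here, GI50 denotes the concentration required for 50% inhibition of growth. Definition used: TGI = concentration required for complete inhibition of growth.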
Key:
Assay in all cases: NCI anticancer screen, dose series, 48 h
CCRF-CEM leukemia = system: CCRF-CEM leukemia
HCC-2998 colon = system: HCC-2998 colon
HOP-62 NSCLC = system: HOP-62 NSCLC
LOX IMVI melanoma = system: LOX IMVI melanoma
NCI-H460 lung = system: NCI-H460 lung
OVCAR-8 ovarian = system: OVCAR-8 ovarian
SF-268 CNS = system: SF-268 CNS
SK-MEL-28 melanoma = system: SK-MEL-28 melanoma
SN12C renal = system: SN12C renal
U251 CNS = system: U251 CNS

Row | SMILES | TGI (CCRF-CEM leukemia) | TGI (HCC-2998 colon) | TGI (HOP-62 NSCLC) | TGI (LOX IMVI melanoma) | TGI (NCI-H460 lung) | TGI (OVCAR-8 ovarian) | TGI (SF-268 CNS) | TGI (SK-MEL-28 melanoma) | TGI (SN12C renal) | TGI (U251 CNS) | GI50 (CCRF-CEM leukemia) | GI50 (HCC-2998 colon) | GI50 (HOP-62 NSCLC) | GI50 (LOX IMVI melanoma) | GI50 (NCI-H460 lung) | GI50 (OVCAR-8 ovarian) | GI50 (SF-268 CNS) | GI50 (SK-MEL-28 melanoma) | GI50 (SN12C renal) | GI50 (U251 CNS)
1 | COc1ccc(C2=Nc3ccccc3SC(C)C2)cc1 (centres undefined) | > 100 µM | > 100 µM | > 100 µM | > 100 µM | > 100 µM | > 100 µM | > 100 µM | > 100 µM | > 100 µM | > 100 µM | – | – | – | – | – | – | – | – | – | –
2 | CN(Cc1cnc(N)nc1N)c1ccc(C(=O)O)cc1 | > 100 µM | > 100 µM | > 100 µM | > 100 µM | > 100 µM | > 100 µM | > 100 µM | > 100 µM | > 100 µM | > 100 µM | > 100 µM | > 100 µM | > 100 µM | > 100 µM | > 100 µM | > 100 µM | > 100 µM | > 100 µM | > 100 µM | > 100 µM
3 | Cc1c(C)c2c(c(C)c1NC(=O)/C=C\C(=O)O)CCC(C)(CCCC(C)CCCC(C)CCCC(C)C)O2 (centres undefined) | 6.11 µM | 3.64 µM | 3.08 µM | 3.69 µM | 2.96 µM | 7.62 µM | 3.08 µM | 3.28 µM | 3.3 µM | 3.18 µM | 1.79 µM | 1.91 µM | 1.64 µM | 1.87 µM | 1.45 µM | 2.29 µM | 1.67 µM | 1.79 µM | 1.73 µM | 1.64 µM
4 | COc1c(C2=NC(C(C)C)CO2)ccc2ccccc12 (centres undefined) | > 100 µM | > 100 µM | > 100 µM | > 100 µM | > 100 µM | > 100 µM | > 100 µM | > 100 µM | > 100 µM | – | – | – | – | – | – | – | – | – | – | –
5 | NC(C/[N+]([O-])=N/O)C(=O)O (centres undefined) | > 100 µM and 418 µM | > 100 µM and 302 µM | > 100 µM and 92.7 µM | > 100 µM and 153 µM | > 78.3 µM and > 100 µM and 223 µM | > 100 µM and 459 µM | > 482 µM | > 500 µM | > 464 µM | > 500 µM | > 29.3 µM and 11.3 µM | – | 19.4 µM and 9.42 µM and 4.9 µM | – | – | – | 6.55 µM and 2.88 µM and 5.56 µM | > 47.8 µM and > 100 µM and 24.5 µM | 14.6 µM and > 100 µM and 10.5 µM | 0.772 µM and 3.82 µM and 0.713 µM
6 | Cc1cc(=O)oc2c(CN3CCCCC3)c(O)ccc12 | > 100 µM | > 100 µM | > 100 µM | > 100 µM | > 100 µM | > 100 µM | > 100 µM | > 100 µM | > 100 µM | > 100 µM | – | – | – | – | – | – | – | – | – | –
7 | O=C(/C=C/C12c3ccccc3C(c3ccccc31)C1C(=O)N(c3ccccc3)C(=O)C12)c1ccc(Cl)cc1 (centres undefined) | > 100 µM | 3.66 µM | 6.86 µM | 3.25 µM | 3.7 µM | > 100 µM | > 100 µM | 5.11 µM | > 100 µM | 4.82 µM | 0.566 µM | 1.7 µM | 2.45 µM | 1.65 µM | 1.64 µM | 1.43 µM | 4.56 µM | 1.98 µM | 2.34 µM | 1.84 µM
8 | O=C(CC(=O)c1ccc([N+](=O)[O-])cc1)C(=O)Nc1nccs1 | > 100 µM | > 100 µM | > 100 µM | > 100 µM | > 100 µM | > 100 µM | > 100 µM | > 100 µM | > 100 µM | > 100 µM | – | – | – | – | – | – | – | – | – | –
9 | CC(=O)OCCOCNC(=S)N/N=C/c1ccc2ccccc2n1 | > 100 µM | > 100 µM | > 100 µM | > 100 µM | > 100 µM | > 100 µM | > 100 µM | > 100 µM | > 100 µM | > 100 µM | – | – | – | – | – | – | – | – | – | –
10 | COC1C(O)C(C)OC(OC2C(Oc3cccc4c(O)c5c(=O)oc6ccc(C)c7c(=O)oc(c34)c5c67)OC(C)C3O[C@H](c4ccccc4)OC32)C1O (some centres undefined) | 8.82 µM | 3.41 µM | 2.17 µM | 1.72 µM | 1.43 µM | 8.23 µM | 5.83 µM | 3.92 µM | 6.17 µM | 10.9 µM | 0.0752 µM and 0.0731 µM | 0.276 µM | 0.15 µM | 0.199 µM and 0.048 µM | 0.0241 µM | – | – | – | 0.173 µM | –
11 | CC(=O)Nc1ccc(-c2c3nc(c(-c4cc5ccccc5[n+](C)c4)c4ccc([nH]4)c(-c4ccc(NC(C)=O)cc4)c4nc(c(-c5cc6ccccc6[n+](C)c5)c5ccc2[nH]5)C=C4)C=C3)cc1 | > 50 µM | > 50 µM | 19.5 µM | > 50 µM | > 50 µM | > 50 µM | > 50 µM | 29.2 µM | 23.2 µM | > 50 µM | 0.721 µM | > 50 µM | 7.3 µM | 12.5 µM | 13.8 µM | 15.7 µM | 35 µM | 10.5 µM | 7.09 µM | 13.5 µM
12 | Cc1cc(=O)n(-c2ccccc2)c(=O)o1 | > 100 µM | > 100 µM | > 100 µM | > 100 µM | > 100 µM | – | > 100 µM | > 100 µM | > 100 µM | > 100 µM | – | – | – | – | – | – | – | – | – | –
13 | CCC1=C(C)/C(=C/c2[nH]c(C(Br)Br)c(CC)c2C)N=C1C(Br)Br | 55.3 µM | 52.9 µM | > 100 µM | > 100 µM | > 100 µM | > 100 µM | > 100 µM | > 100 µM | > 100 µM | 86.4 µM | – | – | – | – | – | – | – | – | – | –
14 | COC(=O)CCC(C)[C@H]1CCC2C3C(C[C@H](OC(C)=O)[C@@]21C)[C@@]1(C)CCC2(C[C@H]1C[C@H]3OC(C)=O)OOC1(CCC(C)CC1)OO2 (some centres undefined) | > 100 µM | > 100 µM | 6.4 µM and 28.4 µM | > 100 µM | > 100 µM | > 100 µM | > 100 µM | > 100 µM | > 100 µM | > 100 µM | – | – | 2.06 µM and 8.76 µM | – | 4.22 µM and 18.7 µM | 8.64 µM and 26.2 µM | 8.26 µM and 32.8 µM | – | – | –
15 | O=C(Cn1c(=O)c(-c2ccccc2)nc2ccccc21)c1ccc(Cl)cc1 | > 100 µM | > 100 µM | > 100 µM | > 100 µM | > 100 µM | > 100 µM | > 100 µM | > 100 µM | > 100 µM | > 100 µM | > 100 µM | 99.5 µM | 33.4 µM | 55 µM | 75.6 µM | 51.9 µM | > 100 µM | 42.5 µM | 48.6 µM | 37.6 µM
16 | Clc1ccccc1C(n1ncc2ccccc21)n1ncc2ccccc21 | > 100 µM | > 100 µM | > 100 µM | > 100 µM | > 100 µM | > 100 µM | > 100 µM | > 100 µM | > 100 µM | > 100 µM | – | – | – | – | – | – | – | – | – | –

From PubChem BioAssay (NCI)
